{
  "source": "patent US20240207237A1",
  "about": "“METHOD OF SCREENING FOR DRUG COMBINATION FOR COLORECTAL CARCINOMA TREATMENT, DRUG COMBINATION AND USE THEREOF” (National Tsing Hua University, priority 2022, published 2024)",
  "data": [
    {"system": "HCT116 cell lines", "assay": "IC50 and cell viability assay of clinical drugs (CCK-8)", "type": "cell-based, human", "conditions": "CCK-8, absorbance 450 nm, triplicate, mean ± SD, Resistance = drug does not affect cell viability", "experimental": "(§1) All the mediums were purchased from […].\n(§2) To determine suitable cell seeding number for each cell line, different number (300, 500, 1000, 3000) of cells/wells were seeded in a 96-well plate. A cell viability was determined using a real-time viability assay (RealTime-Glo™ Assay Reagent). Luminescence intensities were measured at different time points (4, 8, 16, 24, 36, 48, 60 and 72 hours) to evaluate a cell growth curve. To establish IC50 values of ten drugs on each cell line, gradient concentrations of each drug were prepared. […] The cell viability was measured with Cell Counting Kit 8 (e.g., CCK-8 purchased from Dojindo molecular technologies, Japan), and cell viability assay was performed after 2 hours of incubation by measuring the absorbances at 450 nm. Relative cell numbers were determined as compared with the control cells. All experiments were performed in triplicate manner, and data were represented as expressed as mean±standard deviation (mean±SD).", "units": {"IC50": "µM"}, "values": [
      {"molecule": "Nc1nc(=O)c2c([nH]1)NCC(CNc1ccc(C(=O)N[C@@H](CCC(=O)O)C(=O)O)cc1)N2C=O", "note": "(mixture of isomers) [Folinic acid (F), Folinic acid]", "IC50 (μM) ± SD": "Resistance"},
      {"molecule": "O=C1[O][Pt]2([NH][C@@H]3CCCC[C@H]3[NH]2)[O]C1=O", "note": "[Oxaliplatin (O), Oxaliplatin]", "IC50": "10.3 ± 3.27"},
      {"molecule": "Bevacizumab [Bevacizumab (B)]", "IC50 (μM) ± SD": "Resistance"},
      {"molecule": "Panitumumab [Panitumumab (P)]", "IC50 (μM) ± SD": "Resistance"}
    ]},
    {"system": "HCT116 cell lines", "assay": "IC50 and cell viability assay of clinical drugs (CCK-8)", "type": "cell-based, human", "conditions": "Homo sapiens, HCT-116, CCK-8, absorbance 450 nm, triplicate, mean ± SD, Resistance = drug does not affect cell viability", "experimental": "as §1, §2", "units": {"IC50": "µM"}, "values": [
      {"molecule": "O=c1[nH]cc(F)c(=O)[nH]1", "note": "[5-FU (U), 5-Fluorouracil]", "IC50": "8.56 ± 0.897"},
      {"molecule": "Nc1ccn([C@@H]2O[C@H](CO)[C@@H](O)C2(F)F)c(=O)n1", "note": "[Gemcitabine (G), Gemcitabine]", "IC50": 0.183},
      {"molecule": "CCc1c2c(nc3ccc(OC(=O)N4CCC(N5CCCCC5)CC4)cc13)-c1cc3c(c(=O)n1C2)COC(=O)[C@]3(O)CC", "note": "[Irinotecan (I), Irinotecan]", "IC50": "0.01 ± 0.03"},
      {"molecule": "COc1cc2nccc(Oc3ccc(NC(=O)NC4CC4)c(Cl)c3)c2cc1C(N)=O", "note": "[Lenvatinib (L), Lenvatinib]", "IC50": "28.5 ± 0.802"},
      {"molecule": "CNC(=O)c1cc(Oc2ccc(NC(=O)Nc3ccc(Cl)c(C(F)(F)F)c3)c(F)c2)ccn1", "note": "[Regorafenib (R), Regorafenib]", "IC50": "5.89 ± 0.713"}
    ]}
  ]
}
